Reference: PMC11855827, “High-Throughput Screening of Five Compound Libraries for Anthelmintic Activity and Toxicity Leads to the Discovery of Two Flavonoid Compounds” (International Journal of Molecular Sciences, 2025)
Structures can show the parent of a compound that is named as a salt. Where two headings read alike, the source gives them in different places.

System: C. elegans
Assay: microbe, parasite or virus in culture
Details: Caenorhabditis elegans
[1] = 0 h, read-out: Percentage of motility inhibition 0 h, Table S2, C. elegans SS assay, 110 μM, 0 h, averages of 4 data points
[2] = 24 h, read-out: Percentage of motility inhibition 24 h, Table S2, C. elegans SS assay, 110 μM, 24 h, averages of 4 data points
[3] = 0 h, read-out: Percentage of motility inhibition 0 h
[4] = 24 h, read-out: Percentage of motility inhibition 24 h

Structure (SMILES)	inhibition at 110 µM [1] [%]	inhibition at 110 µM [2] [%]	inhibition at 110 µM [3] [%]	inhibition at 110 µM [4] [%]
C=C(C)[C@@H](CC=C(C)C)C[C@@]12C[C@@H](CC=C(C)C)C(C)(C)[C@@](CC=C(C)C)(C(=O)C(C(=O)c3ccc(O)c(O)c3)=C1O)C2=O [Garcinol]	8	3	–	–
CCOC(=O)c1ccc(O)cc1 [Ethylparaben]	32	8	–	–
O=C(/C=C/c1ccc(O)cc1)c1ccc(O)cc1O [Isoliquiritigenin]	16	4	–	–
O=c1c2ccccc2[se]n1-c1ccccc1 [Ebselen]	13	12	–	–
C=C(C)[C@@H]1CC[C@]2(CO)CC[C@]3(C)[C@H](CC[C@@H]4[C@@]5(C)CC[C@H](O)C(C)(C)[C@@H]5CC[C@]43C)[C@@H]12 [Betulin]	0	0	–	–
CC1=CC(=O)CC(C)(C)[C@@]1(O)/C=C/C(C)=C\C(=O)O [Abscisic acid]	0	11	–	–
CC(C)(O)/C=C/C(=O)[C@](C)(O)[C@H]1[C@H](O)C[C@@]2(C)[C@@H]3CC=C4[C@@H](C[C@H](O)C(=O)C4(C)C)[C@]3(C)C(=O)C[C@]12C [Cucurbitacin D]	10	22	–	–
Cc1nccc2c1[nH]c1ccccc12 [Harmane]	0	6	–	–
COc1cc(C2Oc3cc([C@H]4Oc5cc(O)cc(O)c5C(=O)[C@@H]4O)ccc3OC2CO)ccc1O (some centres unmarked) [Silibinin]	0	0	–	–
O=c1cc(-c2ccc(O)c(O)c2)oc2cc(O)c([C@@H]3O[C@H](CO)[C@@H](O)[C@H](O)[C@H]3O)c(O)c12 [Isoorientin]	6	22	–	–
COc1ccc(-c2coc3cc(O)ccc3c2=O)cc1O [Calycosin]	–	–	16	1
O=c1[nH]c(=O)n([C@H]2C[C@H](O)[C@@H](CO)O2)cc1I [Idoxuridine]	38	11	–	–
CC(C)C[C@H](N)C(=O)O [L-Leucine]	4	11	–	–
CCN1C[C@]2(COC)[C@H](O)C[C@H](OC)[C@]34C1[C@H]([C@H](OC)[C@H]23)[C@]1(O)[C@H]2[C@@H](O)[C@](O)(C[C@H]24)[C@@H](OC)[C@@H]1O [Aconine]	10	0	–	–
C[C@H]1O[C@@H](O[C@H]2CC[C@@]3(C)[C@H](CC[C@@H]4[C@@H]3C[C@@H](O)[C@]3(C)[C@@H](C5=CC(=O)OC5)CC[C@]43O)C2)C[C@H](O)[C@@H]1O[C@H]1C[C@H](O)[C@H](O[C@H]2C[C@H](O)[C@H](O[C@@H]3O[C@H](CO)[C@@H](O)[C@H](O)[C@H]3O)[C@@H](C)O2)[C@@H](C)O1 [Deslanoside]	5	5	–	–
N[C@@H](Cc1c[nH]c2ccc(O)cc12)C(=O)O [5-Hydroxytryptophan]	28	12	–	–
C=C1C[C@@]23CC[C@H]4[C@@](C)(CCC[C@@]4(C)C(=O)O[C@@H]4O[C@H](CO)[C@@H](O)[C@H](O)[C@H]4O)[C@@H]2CC[C@]1(O[C@@H]1O[C@H](CO)[C@@H](O)[C@H](O)[C@H]1O)C3 [Rubusoside]	0	18	–	–
N[C@@H](CC(=O)O)C(=O)O [L-Aspartic acid]	20	30	–	–
CCCCCCCCCCCCCCCCCC(=O)O [Stearic acid]	0	1	–	–
Cn1c(Cc2ccccc2)nc(=O)c2ccccc21 [Arborine]	0	4	–	–
Cc1c(C(N)=O)cc([N+](=O)[O-])cc1[N+](=O)[O-] [Dinitolmide]	16	14	–	–
CCC12C=CCN3CC[C@@]4(c5ccc(OC)cc5N(C)[C@H]4[C@@](O)(C(=O)OC)[C@@H]1OC(C)=O)[C@@H]32 (some centres unmarked) [Vindoline]	14	0	–	–
C=C(CC[C@@H](C(=O)O)[C@H]1[C@H](O)C[C@@]2(C)C3=C(CC[C@]12C)[C@@]1(C)CC[C@H](OC(C)=O)C(C)(C)[C@@H]1CC3)C(C)C [Pachymic acid]	45	21	–	–
NCCS(=O)(=O)O [Taurine]	8	0	–	–
COc1ccc(-c2cc(=O)c3c(OC)c(OC)c(OC)cc3o2)cc1OC [Sinensetin]	0	0	–	–
O=C(O)CCCCCCCC(=O)O [Azelaic acid]	0	0	–	–
CCCCC[C@H](O)CC(=O)CCc1ccc(O)c(OC)c1 [[6]‐Gingerol]	1	10	–	–
O=c1cc(-c2ccccc2)oc2cc(O)ccc12 [7‐Hydroxyflavone]	1	0	–	–

Structure (SMILES)	inhibition at 110 µM [1] [%]	inhibition at 110 µM [2] [%]	inhibition at 110 µM [3] [%]	inhibition at 110 µM [4] [%]
CCN(CCO)CCCC(C)Nc1ccnc2cc(Cl)ccc12 (centres unmarked) [Hydroxychloroquine sulfate]	19	9	–	–
C[C@H]1CC[C@@H]2[C@@H](C)[C@H]3[C@H](C[C@H]4[C@@H]5CC=C6C[C@@H](O)CC[C@]6(C)[C@H]5CC[C@]34C)N2C1 [Solanidine]	0	0	–	–
C/C=C1/C[C@@H](C)[C@@](C)(O)C(=O)OCC2=CCN3CC[C@@H](OC1=O)[C@@H]23 [Senecionine]	–	–	0	24
C=C(CCC=C(C)C)[C@H]1CC[C@]2(C)[C@@H]1[C@H](O)C[C@@H]1[C@@]3(C)C[C@@H](O)[C@H](O[C@@H]4O[C@H](CO)[C@@H](O)[C@H](O)[C@H]4O[C@@H]4O[C@H](CO)[C@@H](O)[C@H](O)[C@H]4O)C(C)(C)[C@@H]3CC[C@]12C [Damulin B]	9	16	–	–
C[C@@H]1O[C@@H](Oc2cc(O)c3c(=O)c(O[C@@H]4O[C@@H](C)[C@H](O)[C@@H](O)[C@H]4O)c(-c4ccc(O)cc4)oc3c2)[C@H](O)[C@H](O)[C@H]1O [Kaempferitrin]	4	16	–	–
Cc1ncc([N+](=O)[O-])n1CC(O)CCl (centres unmarked) [Ornidazole]	8	7	–	–
O[C@H]1[C@H]2c3cc4c(cc3CN3CCC(=C[C@@H]1O)[C@H]23)OCO4 [Lycorine]	34	0	–	–
COc1ccc(C(=O)/C=C/c2ccccc2)cc1 [4'‐Methoxychalcone]	–	–	0	5
c1cncc([C@@H]2CCCCN2)c1 [Anabasine]	0	0	–	–
CC1=C[C@H]2Cc3[nH]c(=O)ccc3[C@]3(C1)NCCC[C@H]23 [Huperzine B]	–	–	18	8
O=C(O)CCC(=O)Nc1ccc(S(=O)(=O)Nc2nccs2)cc1 [Succinylsulfathiazole]	31	17	–	–
OC[C@H]1NC[C@H](O)[C@@H](O)[C@@H]1O [1‐Deoxynojirimycin]	0	1	–	–
COC(=O)[C@@]12OC[C@]34[C@H]([C@@H](O)[C@@H]1O)[C@@]1(C)CC(=O)C(O)=C(C)[C@@H]1C[C@H]3OC(=O)[C@H](OC(=O)CC(C)C)[C@@H]24 [Bruceine A]	–	–	24	49
O=C1Cc2ccccc2N1 [Oxindole]	14	7	–	–
C[C@H]1[C@H](C)CC[C@]2(C(=O)O)CC[C@]3(C)C(=CC[C@@H]4[C@@]5(C)CC[C@H](O)C(C)(C)[C@@H]5CC[C@]43C)[C@H]12 [Ursolic acid]	0	0	–	–
CC(CC(=O)C[C@@H](C)[C@H]1CC(=O)[C@@]2(C)C3=C(C(=O)C[C@]12C)[C@@]1(C)CC[C@H](O)C(C)(C)[C@@H]1C[C@@H]3O)C(=O)O (some centres unmarked) [Ganoderic acid B]	0	20	–	–
O=C1C[C@@H](c2ccc(O)c(O)c2)Oc2cc(O)cc(O)c21 [Eriodictyol]	0	14	–	–
CCCCCCCCCCOc1cc2c(O)c(C(=O)OCC)cnc2cc1OCC [Decoquinate]	13	1	–	–
O=C(O)c1ccccc1 [Benzoic acid]	–	–	3	6
N[C@@H](Cc1ccccc1)C(=O)O [L-Phenylalanine]	23	21	–	–
CC(C)=CCc1c(-c2ccc(O)cc2O)oc2c3c(cc(O)c2c1=O)OC(C)(C)C=C3 [Morusin]	33	14	–	–
N[C@@H](Cc1ccc(O)cc1)C(=O)O [L-Tyrosine]	–	–	34	8
C=C1C[C@@]23CC[C@H]4[C@@](C)(CCC[C@@]4(C)C(=O)O[C@@H]4O[C@H](CO)[C@@H](O)[C@H](O)[C@H]4O)[C@@H]2CC[C@]1(O[C@@H]1O[C@H](CO)[C@@H](O)[C@H](O)[C@H]1O[C@@H]1O[C@@H](C)[C@H](O)[C@@H](O)[C@H]1O)C3 [Dulcoside A]	0	11	–	–
CCN1C[C@]2(C)CC[C@H](OC)[C@@]34C1[C@]1(OCO[C@@]15C[C@H](OC)[C@H]1C[C@]3(O)[C@@H]5[C@H]1OC)[C@@H](OC(C)=O)[C@H]24 [Deltaline]	0	0	–	–
C[C@@H]1O[C@@H](O[C@H]2[C@H](Oc3cc(O)c4c(c3)O[C@H](c3ccc(O)cc3)CC4=O)O[C@H](CO)[C@@H](O)[C@@H]2O)[C@H](O)[C@H](O)[C@H]1O [Naringin]	0	3	–	–
COc1cc(O)c2c(=O)c(-c3ccc(O)cc3)coc2c1 [Prunetin]	0	7	–	–
O=c1ccc2ccccc2o1 [Coumarin]	12	8	–	–
